Values after ≈ are worked out from the molar mass of the structure shown. Like-named read-outs stand apart in the source and are kept apart here.

Format in all cases: cell-based
The subject of one test is E. cloacae 34654. The test is described as follows: MIC determination, broth microdilution (CLSI). Conditions: for MIC: Enterobacter cloacae, 34654, strain 3. (Broth dilution looks for growth in wells or tubes with falling amounts of substance.)
The next test has as its system K. pneumoniae 60. Put plainly: MIC determination, broth microdilution (CLSI). Conditions: for MIC: Klebsiella pneumoniae, 60, strain 2.
A further test concerns E. coli J62-TEM-3. Put plainly: MIC determination, broth microdilution (CLSI). Conditions: Escherichia coli, J62TEM3, read-out: MIC strain 18 (E. coli J62-TEM-3), strain 18; broth microdilution.
Another test concerns A. baumannii ATCC15308. The test is described as follows: MIC determination, broth microdilution (CLSI). Conditions: for MIC: Acinetobacter baumannii, ATCC15308, strain 9.
For a further test, the system named is P. aeruginosa PAO1. The test is described as follows: MIC determination, broth microdilution (CLSI). Conditions: for MIC: Pseudomonas aeruginosa, PAO1, strain 6.
The subject of the next test is S. maltophilia ICB7569. Put plainly: MIC determination, broth microdilution (CLSI). Conditions: for MIC: Stenotrophomonas maltophilia, ICB7569, strain 10.
The next test relates to Bacteria. The test is described as follows: MIC determination in combination with β-lactamase inhibitors (constant 4 μg/mL).
A further test deals with M. morganii 126/3048. Put plainly: MIC determination, broth microdilution (CLSI). Conditions: Morganella morganii, 126/3048, strain 5.
In test [1] the test system is P. aeruginosa 2297 (AmpC wt). Put plainly: MIC determination, broth microdilution (CLSI). Conditions: for MIC: Pseudomonas aeruginosa, strain 7.
A further test concerns C. perfringens DSM756. The test is described as follows: microbe, parasite or virus in culture. Conditions: Clostridium perfringens, DSM756, read-out: MIC strain 16 (C. perfringens DSM756), strain 16; broth microdilution.
The test system of the next test is C. freundii K21/3034. The test is described as follows: MIC determination, broth microdilution (CLSI). Conditions: for MIC: Citrobacter freundii, K21/3034, strain 4.
A further test concerns S. aureus 133. Put plainly: MIC determination, broth microdilution (CLSI).
The test system of a further test is B. fragilis 6688. Put plainly: MIC determination, broth microdilution (CLSI). Conditions: Bacteroides fragilis, 6688, strain 15; broth microdilution; read-out: MIC strain 15 (B. fragilis 6688).
A further test has as its system E. coli ATCC25922. The test is described as follows: MIC determination, broth microdilution (CLSI). Conditions: for MIC: Escherichia coli, ATCC25922, strain 1.
A further test deals with S. pneumoniae 113. Put plainly: MIC determination, broth microdilution (CLSI). Conditions: Streptococcus pneumoniae, 113, strain 13; broth microdilution; read-out: MIC strain 13 (S. pneumoniae 113).
For another test, the system named is E. coli J62. The test is described as follows: MIC determination, broth microdilution (CLSI). Conditions: broth microdilution; for MIC: Escherichia coli, J62, strain 17, read-out: MIC strain 17 (E. coli J62).
The next test has as its system H. influenzae ATCC 49247. The test is described as follows: MIC determination, broth microdilution (CLSI). Conditions: Haemophilus influenzae, ATCC49247, strain 12; broth microdilution; read-out: MIC strain 12 (H. influenzae ATCC 49247).
Test [2] concerns P. aeruginosa 2297-con (AmpC derepressed). The test is described as follows: MIC determination, broth microdilution (CLSI). Conditions: for MIC: Pseudomonas aeruginosa, read-out: strain 8 MIC, strain 8.
The mark [3] stands for this setting: Staphylococcus aureus, 133, strain 11, read-out: strain 11 MIC.
[4] abbreviates: Staphylococcus aureus, 133, strain 14, broth microdilution, read-out: MIC strain 14 (S. aureus 133).

Take `CC1(C)[C@H](NC(=O)/C(=N\O[C@@H](COc2ccc(C(=N)NC3CNC3)cc2)C(=O)O)c2csc(N)n2)C(=O)N1OS(=O)(=O)O` [Example 107, (2S)-2-({[(1Z)-1-(2-Amino-1,3-thiazol-4-yl)-2-{[(3S)-2,2-dimethyl-4-oxo-1-(sulfooxy)azetidin-3-yl]amino}-2-oxoethylidene]amino}oxy)-3-{4-[N-(azetidin-3-yl)carbamimidoyl]phenoxy}propanoic acid]: the MIC with E. cloacae 34654 amounted to 0.25 µg/mL (≈ 0.39 µM); in the test on K. pneumoniae 60, 0.125 µg/mL (≈ 0.195 µM); with E. coli J62-TEM-3 it was 4 µg/mL (≈ 6.24 µM); against A. baumannii ATCC15308 it was 1 µg/mL (≈ 1.56 µM); in the test on P. aeruginosa PAO1, 1 µg/mL (≈ 1.56 µM); in the test with S. maltophilia ICB7569, 4 µg/mL (≈ 6.24 µM). For the same compound, the MIC with M. morganii 126/3048 was ≤ 0.063 µg/mL; in test [1] it was 1 µg/mL (≈ 1.56 µM); in the test with C. perfringens DSM756, 0.125 µg/mL (≈ 0.195 µM); against C. freundii K21/3034, ≤ 0.063 µg/mL; in the test with S. aureus 133 (setting [3]), ≤ 0.063 µg/mL; in the test on S. aureus 133 (setting [4]), 32 µg/mL (≈ 49.9 µM). Also, the MIC in the test with B. fragilis 6688 was 8 µg/mL (≈ 12.5 µM); in the test with E. coli ATCC25922, ≤ 0.063 µg/mL; in the test with S. pneumoniae 113 it was 0.5 µg/mL (≈ 0.78 µM); with E. coli J62 it was 0.125 µg/mL (≈ 0.195 µM); in the test on H. influenzae ATCC 49247, ≤ 0.063 µg/mL; in test [2], 1 µg/mL (≈ 1.56 µM). Moreover, the “MIC strain 19 (E. coli J62-TEM-3 + 4 μg/mL clavulanic acid)” value with Bacteria is recorded as “≦0.063 mg/L”. The “MIC strain 20 (E. coli J62-TEM-3 + 4 μg/mL sulbactam)” value in the test with Bacteria is given as “≦0.063 mg/L”. Moreover, the “MIC strain 21 (E. coli J62-TEM-3 + 4 μg/mL tazobactam)” value in the test on Bacteria was “≦0.063 mg/L”.
In the case of `CC(=N)N1CC[C@H](NC(=N)c2ccc(OCCO/N=C(\C(=O)N[C@@H]3C(=O)N(OS(=O)(=O)O)C3(C)C)c3csc(N)n3)cc2)C1` [Example 43, (2Z)-2-(2-Amino-1,3-thiazol-4-yl)-N-[(3S)-2,2-dimethyl-4-oxo-1-(sulfooxy)azetidin-3-yl]-2-{[2-(4-{N-[(3S)-1-ethanimidoylpyrrolidin-3-yl]carbamimidoyl}phenoxy)ethoxy]-imino}ethanamide], the MIC with E. cloacae 34654 is 1 µg/mL (≈ 1.53 µM); against K. pneumoniae 60, 0.5 µg/mL (≈ 0.767 µM); in the test with E. coli J62-TEM-3, 8 µg/mL (≈ 12.3 µM); against A. baumannii ATCC15308, 0.5 µg/mL (≈ 0.767 µM); against P. aeruginosa PAO1 it was 8 µg/mL (≈ 12.3 µM); with S. maltophilia ICB7569 it was 32 µg/mL (≈ 49.1 µM). For the same compound, the MIC against M. morganii 126/3048 amounted to 1 µg/mL (≈ 1.53 µM); in test [1], 8 µg/mL (≈ 12.3 µM); with C. perfringens DSM756, 2 µg/mL (≈ 3.07 µM); against C. freundii K21/3034 it was 0.25 µg/mL (≈ 0.384 µM); in the test with S. aureus 133 (setting [4]), 4 µg/mL (≈ 6.14 µM); in the test on B. fragilis 6688, 8 µg/mL (≈ 12.3 µM). For the same compound, the MIC against E. coli ATCC25922 was 0.5 µg/mL (≈ 0.767 µM); in the test on S. pneumoniae 113 it was ≤ 0.063 µg/mL; in the test with E. coli J62, 0.5 µg/mL (≈ 0.767 µM); with H. influenzae ATCC 49247, 0.125 µg/mL (≈ 0.192 µM); in test [2] it was 8 µg/mL (≈ 12.3 µM). Besides, the “MIC strain 19 (E. coli J62-TEM-3 + 4 μg/mL clavulanic acid)” value in the test on Bacteria amounted to 0.25 µg/mL. Besides, the “MIC strain 20 (E. coli J62-TEM-3 + 4 μg/mL sulbactam)” value in the test on Bacteria was determined as 0.5 µg/mL. The “MIC strain 21 (E. coli J62-TEM-3 + 4 μg/mL tazobactam)” value with Bacteria was found to be 0.5 µg/mL.
Take `CC1(C)[C@H](NC(=O)/C(=N\O[C@@H](COc2ccc(C(=N)NC3CC3N)cc2)C(=O)O)c2csc(N)n2)C(=O)N1OS(=O)(=O)O` (single isomer, unassigned) [Example 100A]: in the test with E. cloacae 34654 (strain 3), the “strain 3 MIC” value was 0.125 µg/mL. Besides, the “strain 2 MIC” value with K. pneumoniae 60 (strain 2) was 0.25 µg/mL. Also, the MIC is 32 µg/mL (≈ 49.9 µM) in the test with E. coli J62-TEM-3; ≤ 0.063 µg/mL against M. morganii 126/3048; 2 µg/mL (≈ 3.12 µM) in the test with C. perfringens DSM756; ≤ 0.063 µg/mL in the test on S. aureus 133 (setting [3]); 8 µg/mL (≈ 12.5 µM) in the test with B. fragilis 6688; 0.5 µg/mL (≈ 0.78 µM) in the test on S. pneumoniae 113. Further, in the test with H. influenzae ATCC 49247, the MIC was ≤ 0.063 µg/mL. Further, the “strain 9 MIC” value with A. baumannii ATCC15308 (strain 9) was found to be 8 µg/mL. In the test on P. aeruginosa PAO1 (strain 6), the “strain 6 MIC” value turned out to be 2 µg/mL. In addition, the “strain 10 MIC” value in the test with S. maltophilia ICB7569 (strain 10) was determined as 8 µg/mL. For the same compound, in the test on Bacteria, the “MIC strain 19 (E. coli J62-TEM-3 + 4 μg/mL clavulanic acid)” value was determined as 0.125 µg/mL. Besides, the “MIC strain 20 (E. coli J62-TEM-3 + 4 μg/mL sulbactam)” value in the test with Bacteria was determined as 0.125 µg/mL. The “MIC strain 21 (E. coli J62-TEM-3 + 4 μg/mL tazobactam)” value with Bacteria was determined as 0.25 µg/mL. For the same compound, the “strain 7 MIC” value in test [1] was 4 µg/mL. In the test on C. freundii K21/3034 (strain 4), the “strain 4 MIC” value was 0.125 µg/mL. Moreover, the “strain 1 MIC” value in the test on E. coli ATCC25922 (strain 1) turned out to be 0.125 µg/mL. In addition, the “MIC strain 17 (E. coli J62)” value in the test on E. coli J62 (strain 17) was 0.25 µg/mL (≈ 0.39 µM). Further, the “strain 8 MIC” value in test [2] (strain 8) was 4 µg/mL.

(Values after patent publication US9556165B2 (priority 2012, dated 2017).)
